According to PMC7287880, “Structural Basis for Broad Substrate Selectivity of Alcohol Dehydrogenase YjgB from Escherichia coli” (Molecules, 2020):

Biological target: T1, EcYjgB (YjgB) (Escherichia coli, UniProt P27250)
T1 construct: gene ahr; full-length, C-terminal 6xHis tag (pET30a), recombinant in E. coli BL21(DE3), purified by Ni-NTA and size exclusion; Zn-containing dimer
T1 sequence (P27250 1-339): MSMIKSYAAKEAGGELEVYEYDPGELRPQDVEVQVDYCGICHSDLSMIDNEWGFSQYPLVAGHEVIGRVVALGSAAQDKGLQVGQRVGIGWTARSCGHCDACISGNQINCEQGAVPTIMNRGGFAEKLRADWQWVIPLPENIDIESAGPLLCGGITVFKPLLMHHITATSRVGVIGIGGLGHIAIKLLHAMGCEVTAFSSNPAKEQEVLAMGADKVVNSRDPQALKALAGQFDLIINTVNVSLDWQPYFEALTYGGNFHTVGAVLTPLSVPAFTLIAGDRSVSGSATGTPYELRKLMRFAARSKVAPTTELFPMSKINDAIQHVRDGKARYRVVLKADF
Test: X-ray crystal structure of soaked crystal, […] A
Format: binding
Conditions: apo crystals soaked with 5 mM NADP for 30 min at 7 C; Zn-bound; PEG fragment in substrate pocket; Rossmann-fold cofactor site

NC(=O)c1ccc[n+]([C@@H]2O[C@H](COP(=O)(O)OP(=O)(O)OC[C@H]3O[C@@H](n4cnc5c(N)ncnc54)[C@H](OP(=O)(O)O)[C@@H]3O)[C@@H](O)[C@H]2O)c1 [NADP]
X-ray crystal structure of soaked crystal, 2.00 A: The electron density of NADP is clearly shown in the NADP(H) binding site
